The values below come from patent publication US6869593B2, “Non-isotopic detection of osteoblastic activity in vivo using modified bisphosphonates” (Beth Israel Deaconess Medical Center, priority 2000, dated 2005).

Data set [1] is described as follows: Quantitation of skeletal uptake by rib fluorescence intensity.
Procedure: However, we were able to estimate skeletal uptake by measuring fluorescence intensity of the ribs in the skinless animal. Calibration standards matching the geometry of the ribs were placed next to the animal and mean fluorescence intensities of each standard and the caudal three ribs on each side were measured.
The nature of data set [2]: Serum concentration after intravenous injection (plasma elimination). The conditions noted are these: 2.6 nmol intravenous, tail vein.
Procedure: Hairless 7 week old male nu/nu mice (Charles River Laboratories, Wilmington, Mass.; average weight 25 g) were anesthetized with 50 mg/kg i.p. pentobarbital. The lateral tail vein was visualized using a flashlight and 2.6 nmol of compound resuspended in 80 μl of phosphate buffered saline (PBS) was injected using a bent, 30 gauge, ½″ needle. For measurement of plasma concentration, the tip of the tail of an anesthetized animal was cut with a razor blade, and 75 μl of whole blood was milked, and collected with a capillary tube. After clotting and removal of cells by centrifugation, serum was diluted 1:10 in 50 mM Hepes, pH 7.4 and a wavelength scan from 400 nm to 850 nm was performed. Serum concentration was determined by peak height at 771 nm after subtraction of background (pre-injection serum), and correction for hemoglobin absorbance.
Data set [3] is described as follows: In vivo near-infrared fluorescence imaging of HA.
Procedure: Compound Injection and Measurement of Serum Concentration. Hairless 7 week old male nu/nu mice (Charles River Laboratories, Wilmington, Mass.; average weight 25 g) were anesthetized with 50 mg/kg i.p. pentobarbital. The lateral tail vein was visualized using a flashlight and 2.6 nmol of compound resuspended in 80 μl of phosphate buffered saline (PBS) was injected using a bent, 30 gauge, ½″ needle.
Data set [4] is described as follows: Kinetic binding to hydroxyapatite crystals. The conditions noted are these: 5 μM compound, 37° C. Here is the method: In Vitro Hydroxyapatite Binding Experiments. For kinetic measurements of binding to HA, 5 μM Pam78 or the carboxylic acid of IRDye78 was added from a 20× stock solution to 100 μl NK buffer containing 1.5 mg/ml (1.5 mM) HA. Suspensions were continuously vortexed at 37° C. for the time indicated. Bound and unbound material was separated using a 0.2 μm filter in a 96-well format (Model MAGVN2210, Millipore, Bedford, Mass.), and the concentration of material in the filtrate was measured using the SPECTRAmax Gemini XS fluorescence microplate reader set for an excitation wavelength of 771 nm and an emission wavelength of 796 nm. Bound material was calculated by subtracting unbound compound from the total added to each reaction.

A short description of data set [5]: Spectral measurements (absorbance, fluorescence). In kind it is physicochemical. Here is the method:
Spectral Measurements. Absorbance measurements and scans were performed on a Model DU-600 spectrophotometer (Beckman, Fullerton, Calif.) using 1 μM of each compound in 20 mM N-ethylmorpholine (NEM), pH 7.4 and 150 mM KCl (NK buffer). Fluorescence measurements, and excitation/emission scans were performed on a SPECTRAmax Gemini XS microplate reader (Molecular Devices, Sunnyvale, Calif.) using Model 655076 black 96-well plates (Greiner, Lake Mary, Fla.), and […] of each compound in NK buffer. Curves were analyzed using SOFTmax PRO software (Molecular Devices, Sunnyvale, Calif.) and plotted using Prism3 for the Macintosh (GraphPad Software, Inc., San Diego, Calif.).

For data set [6] the following is noted: rats; cited from earlier work.
A short description of data set [7]: Competition of Pam78 binding to HA by unlabeled pamidronate. The conditions noted are these: 80 nmol (800 μM) unlabeled pamidronate; 2.5 μM Pam78; 1.5 mg/ml HA; three hours. Here is the method: For competition experiments, free pamidronate was pre-incubated in 100 μl NK buffer with 1.5 mg/ml (1.5 mM) HA for five minutes at room temperature with continuous vortexing. Pam78 was then added from a 20× stock solution to a final concentration of 2.5 μM. Incubation at 37° C. with continuous vortexing continued for three hours prior to filtration and measurement as described above.

For `CC1(C)C(/C=C/C2=C(Oc3ccc(CCC(=O)NCCC(O)(P(=O)([O-])O)P(=O)(O)O)cc3)C(=C\C=C3/N(CCCCS(=O)(=O)O)c4ccc(S(=O)(=O)O)cc4C3(C)C)/CCC2)=[N+](CCCCS(=O)(=O)O)c2ccc(S(=O)(=O)O)cc21` (centres unmarked) [Pam78], the “concentration in ribs (mean±S.E.M.)” value in data set [1] (caudal three ribs on each side, skinless animal, 2.6 nmol injected) worked out at 910 ± 27 nM. Besides, the “skeletal uptake, percentage of injected dose” value in data set [1] (out of 2.6 nmol injected) is recorded as 57%. In addition, the “amount bound to the skeleton” value in data set [1] (out of 2.6 nmol injected, assuming bone density 1.8 g/cm^3, skeletal weight 11.8% body weight) is recorded as 1.5 nmol. Also, in data set [2], the “early half-life of elimination from plasma” value was determined as 5.0 min and the “late half-life of elimination from plasma” value amounted to 15.4 min. In addition, in data set [3] (2.6 nmol intravenous), the “time at which uptake in spine, ribs, paws and knees is detected above background” value was 15 min; the “time by which phalanges, wrist, skull, pelvis, femur and ankle become visible” value was ≤ 3 h. Further, in data set [3] (twelve hours post-injection), the “stability in vivo (skeletal signal)” value is “no degradation of skeletal signal”. Also, the “time to asymptotic binding to HA” value in data set [4] (1.5 mg/ml HA) is ≤ 1 h. Further, in data set [4] (five minutes, 1.5 mg/ml (1.5 mM) HA, NK buffer), the “percent of peak binding to HA achieved” value is recorded as 37%. Also, the peak absorption entry in data set [5] (1 μM in NK buffer) is on record as “unchanged from IRDye78”. This compound also showed a peak emission in data set [5] (excitation fixed at 771 nm, NK buffer) of 796 nm.

Regarding `O.O.O=P([O-])([O-])CP(=O)([O-])[O-].[99Tc+4]` [^99mTc-MDP], the skeletal uptake in data set [6] is on record as 52%.

In the case of `NCCC(O)(P(=O)(O)O)P(=O)(O)O` [pamidronate], in data set [7], the “inhibition of Pam78 binding to HA” value worked out at 90%.
